For the test, the system named is serum LH, FSH, E2. Nature of the test: Physiological effects in healthy women, follicular phase (Example 11, Part 1). The class given is in vivo, human. The source says: The study population included healthy women, aged 18-35 years, with BMI 18-30 kg/m^2, no medical problems and not taking any medications or hormonal contraception. Three healthy, female subjects were selected and randomized and received a single dose of each of the three study regimens noted below (one regimen per study period). All women were scheduled for three Study D1 Visits (each during the follicular phase of the menstrual cycle). […] The order in which a subject receives one of the three study regimens was determined by a randomization matrix.
The study included a screening visit to collect participants' full medical history and to conduct a general medical examination and blood testing. The three study periods each consisted of three planned study visits per study period (excluding screening and follow-up). Study Day 1 (SD1) Visit of each study period occurred during the follicular phase of the menstrual cycle (days 1-4), and the SD2 and SD3 Visits occurred at 24- and 48-hrs post-dose, respectively (FIG. 14). A follow-up phone call happened 7-10 days post-dose in each study period.
Immediately following dosing, serum LH, FSH, E2 (oestradiol), P (progesterone) and SHBG levels were assessed at 30 minute intervals for up to 14 hours (FIGS. 15A-15C, 16A-16C, 17, 18, 19, 20A, and 20B). These PD variables were also assessed at 24 (Study Day 2) and 48 hours (Study Day 3) post-dose. SHBG changes less rapidly and was measured every 3 hours to reduce blood volume.
Up to 3 mL of blood volume were required for measurement of serum reproductive hormone levels (LH, FSH, E2 and P). Blood samples for serum analysis were collected in plain Vacutainer tubes (Beckton Dickson, Franklin Lakes, N.J., USA), and spun after clotting (˜1 hour at room temperature) for 10 minutes at 3000 rpm. Serum was then stored in a locked freezer at −20° C. until assay of serum reproductive hormone levels.

Where a SMILES comes first, the peptide text is derived from it. [ ]: non-standard residue; d: D form. Arg(Me) = CNC(=N)NCCC[C@H](N)C(=O)O; Hyp = O=C(O)[C@@H]1C[C@@H](O)CN1; azaGly = NNC(=O)O

Regarding `CNC(=N)NCCC[C@H](NC(=O)[C@H](CC(C)C)NC(=O)NNC(=O)[C@H](Cc1ccccc1)NC(=O)[C@@H](NC(=O)[C@H](CC(N)=O)NC(=O)[C@@H]1C[C@@H](O)CN1C(=O)[C@@H](Cc1ccc(O)cc1)NC(C)=O)[C@@H](C)O)C(=O)N[C@@H](Cc1c[nH]c2ccccc12)C(N)=O` [Compound 1, 2-(N-Acetyl-D-tyrosyl-trans-4-hydroxy-L-prolyl-L-asparaginyl-L-threonyl-L-phenylalanyl)-hydrazinocarbonyl-L-leucyl-Nω-methyl-L-arginyl-L-tryptophanamide] (Ac-[dY][Hyp]NTF[azaGly]L[Arg(Me)]W-NH2), the FSH response entry is listed as “very low compared to the LH response”. Besides, the “Time of peak serum LH post-dosing” value (0.003 nmol/kg SC) lay within 14 to 36 h. Further, under “0.03 nmol/kg SC”, the “Duration of LH surge” value is on record as “approximately 14 hours”, the “End of LH surge after administration” value amounted to 28 h and the “Time of peak serum LH after administration” value lay within 18 to 20 h.

The values above are taken from US11013780B2, “Methods of treating female infertility” (Myovant Sciences GmbH, priority 2016, dated 2021).
